The text below walks through data of patent publication US8497279B2, “Treatment for discoid lupus” (Rigel Pharmaceuticals, Inc., priority 2011, dated 2013).

Counter-ions that a name gives are not always drawn. Like-named read-outs stand apart in the source and are kept apart here.

For one assay, the system named is JAK1 and JAK3 kinases. Nature of the assay: Ramos B-cell line stimulated with IL-4, CD23 upregulation (FACS). In kind it is cell-based, human. The protocol: One means of assaying for JAK inhibition is detection of the effect of compounds I and II on the upregulation of downstream gene products. In the Ramos/IL4 assay, B-cells are stimulated with the cytokine Interleukin-4 (IL-4) leading to the activation of the JAK/Stat pathway through phosphorylation of the JAK family kinases, JAK1 and JAK3, which in turn phosphorylate and activate the transcription factor Stat-6. […] Twenty to 24 hours post stimulation, cells are stained for upregulation of CD23 and analyzed using flow cytometry (FACS). […] An exemplary assay of this type is described in greater detail below. B-cells stimulated with cytokine Interleukin-4 (IL-4) activate the JAK/Stat pathway through phosphorylation of the JAK family kinases, JAK-1 and JAK-3, which in turn phosphorylate and activate the transcription factor Stat-6. […] To study the effect of inhibitors on the JAK family kinases, human Ramos B cells are stimulated with human IL-4. The Ramos B-cell line was acquired from [NT] No. CRL-1596). The cells were cultured in RPMI 1640 (Cellgro, MediaTech, Inc., Herndon, Va., Cat No. 10-040-CM) with 10% fetal bovine serum (FBS), heat inactivated (JRH Biosciences, Inc, Lenexa, Kans., Cat No. 12106-500M) according to ATCC propagation protocol. Cells were maintained at a density of 3.5×10^5. The day before the experiment, Ramos B-cells were diluted to 3.5×10^5 cells/mL to ensure that they were in a logarithmic growth phase. Cells were spun down and suspended in RPMI with 5% serum. 5×10^4 cells were used per point in a 96-well tissue culture plate. Cells were pre-incubated with compound or DMSO (Sigma-Aldrich, St. Louis, Mo., Cat No. D2650) vehicle control for 1 hour in a 37° C. incubator. Cells were then stimulated with IL-4 (Peprotech Inc., Rocky Hill, N.J., Cat No. 200-04) for a final concentration of 50 units/mL for 20-24 hours. Cells were then spun down and stained with anti-CD23-PE(BD Pharmingen, San Diego, Calif., Cat No. 555711) and analyzed by FACS. Detection was performed using a BD LSR I System Flow Cytometer, purchased from Becton Dickinson Biosciences of San Jose, Calif.

In another assay the test system is primary human T-cells. The assay is described as follows: Primary human T-cell proliferation assay stimulated with IL-2 (CellTiter-Glo). The conditions noted are these: read-out: Example 4 IC50. In kind it is cell-based. The source says:
In this assay, primary human T-cells derived from peripheral blood and pre-activated through stimulation of the T-cell receptor and CD28, proliferate in culture in response to the cytokine Interleukin-2 (IL-2). This proliferative response is dependent on the activation of JAK1 and JAK3 tyrosine kinases, which phosphorylate and activate the transcription factor Stat-5. […] A reduction in cell proliferation compared to control conditions is indicative of inhibition of the JAK kinase pathway. An exemplary assay of this type is described in greater detail below.
Primary human T-cells derived from peripheral blood and pre-activated through stimulation of the T-cell receptor and CD28, proliferate in vitro in response to the cytokine Interleukin-2 (IL-2). This proliferative response is dependent on the activation of JAK-1 and JAK-3 tyrosine kinases, which phosphorylate and activate the transcription factor Stat-5.
Human primary T cells were prepared as follows. […] The lymphocytes at the serum: ficoll interface were recovered and washed twice with 5 volumes of PBS. […] The primary T-cells were stimulated for 3-4 days, then transferred to a fresh flask and maintained in RPMI with 10% FBS and 40 U/mL IL-2.
Primary T-cells were washed twice with PBS to remove the IL-2 and resuspended in Yssel's medium at 2×10^6 cells/mL. 50 μL of cell suspension containing 80 U/mL IL-2 was added to each well of a flat bottom 96 well black plate. For the unstimulated control, IL-2 was omitted from the last column on the plate. […] 50 μL of 2× compound was added per well in duplicate and the cells were allowed to proliferate for 72 hours at 37° C.
Proliferation was measured using CellTiter-Glo® Luminescent Cell Viability Assay (Promega), which determines the number of viable cells in culture based on quantitation of the ATP present, as an indicator of metabolically active cells. The substrate was thawed and allowed to come to room temperature. After mixing the Cell Titer-Glo reagent and diluent together, 100 μL was added to each well. […]
On the technique in general: In ATP-based viability assays light output follows the ATP content of the culture.

The next assay has as its target T1, JAK3 (Homo sapiens, UniProt P52333).
T1 construct: endogenous in cells
T1 sequence (P52333 1-1124): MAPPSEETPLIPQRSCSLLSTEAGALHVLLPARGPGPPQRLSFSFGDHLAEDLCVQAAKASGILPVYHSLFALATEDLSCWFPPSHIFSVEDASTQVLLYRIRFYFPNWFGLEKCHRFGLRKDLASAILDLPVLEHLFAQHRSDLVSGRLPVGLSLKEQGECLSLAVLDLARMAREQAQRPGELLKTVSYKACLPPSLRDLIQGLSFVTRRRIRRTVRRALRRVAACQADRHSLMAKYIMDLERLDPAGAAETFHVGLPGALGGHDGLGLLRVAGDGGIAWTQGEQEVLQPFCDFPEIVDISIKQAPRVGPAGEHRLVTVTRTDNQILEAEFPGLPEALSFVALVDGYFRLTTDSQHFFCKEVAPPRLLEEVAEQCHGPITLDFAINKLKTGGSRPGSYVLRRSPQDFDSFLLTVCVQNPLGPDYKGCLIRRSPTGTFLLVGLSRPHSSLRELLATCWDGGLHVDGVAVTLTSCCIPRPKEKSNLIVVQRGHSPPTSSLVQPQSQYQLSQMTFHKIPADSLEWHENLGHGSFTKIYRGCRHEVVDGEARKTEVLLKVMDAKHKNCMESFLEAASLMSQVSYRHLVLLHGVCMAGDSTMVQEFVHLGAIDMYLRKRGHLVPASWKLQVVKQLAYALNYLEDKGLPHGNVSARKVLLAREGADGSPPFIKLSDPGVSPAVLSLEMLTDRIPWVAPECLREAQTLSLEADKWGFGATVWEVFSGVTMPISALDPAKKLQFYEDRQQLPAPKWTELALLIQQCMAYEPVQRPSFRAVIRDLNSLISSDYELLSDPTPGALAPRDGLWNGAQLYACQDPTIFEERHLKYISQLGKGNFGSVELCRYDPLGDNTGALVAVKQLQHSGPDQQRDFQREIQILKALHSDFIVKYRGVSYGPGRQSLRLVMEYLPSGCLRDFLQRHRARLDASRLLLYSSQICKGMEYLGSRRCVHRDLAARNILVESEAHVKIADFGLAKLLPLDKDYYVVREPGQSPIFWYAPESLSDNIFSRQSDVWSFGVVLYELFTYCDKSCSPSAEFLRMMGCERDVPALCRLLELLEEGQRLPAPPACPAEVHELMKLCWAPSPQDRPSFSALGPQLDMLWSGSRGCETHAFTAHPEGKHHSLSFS
Nature of the assay: Human cell based assay against JAK3. To be noted: human cell based assays; read-out: half maximal effective concentration (EC50) against JAK3.

A further assay concerns the target T2, Syk (Homo sapiens, UniProt P43405).
T2 construct: endogenous in cells
The assay is described as follows: Human cell based assay against Syk. The conditions noted are these: human cell based assays; read-out: half maximal effective concentration (EC50) against Syk.

A further assay deals with IL-1β. Nature of the assay: Other cytokine signaling (IL-1β). The assay is classed as cell-based.
Another assay deals with TNFα. Nature of the assay: Other cytokine signaling (TNFα). In kind it is cell-based.
Assay [1] relates to receptor tyrosine kinase (RTK). Nature of the assay: Receptor tyrosine kinase (RTK) signaling. In kind it is cell-based.
The next assay relates to cell proliferation. Nature of the assay: Cell proliferation (broad inhibition). The assay is classed as cell-based.
A further assay concerns JAK/Stat pathway. Nature of the assay: U937 IFNγ ICAM1 FACS assay. The assay is classed as cell-based, human. The conditions noted are these: U937 cells, IFNγ 10 ng/mL, 18-24 hours, ICAM-1 expression; read-out: Example 6 IC50. On the procedure:
U937 human monocytic cells up-regulate ICAM-1 (CD54) surface expression in response to a variety of different stimuli. Therefore, using ICAM-1 expression as readout, compound effects on different signaling pathways can be assessed in the same cell type. IFNγ up-regulates ICAM-1 through activation of the JAK/Stat pathway. In this example, the up-regulation of ICAM-1 by IFNγ was assessed.
U937 cells were grown in 10% RPMI. The cells were then plated at a concentration of 100,000 cells per 160 μL in 96 well flat bottom plates. […] Then 4 μL of test compound was transferred to 76 μL of 10% RPMI resulting in a 10× solution (100 μM test compound, 5% DMSO). For control wells, 4 μL of DMSO was diluted into 76 μL 10% RPMI.
The assay was performed in duplicate with 8 points (8 3-fold dilution concentrations from […]) and with 4 wells of DMSO only (control wells) under stimulated conditions and 4 wells of DMSO only under unstimulated conditions.
The diluted compound plate was mixed 2× using a multimek (Beckman Coulter of Brea, Calif.) and then 20 μL of the diluted compounds was transferred to the 96 well plate containing 160 μL of cells, which were then mixed again twice at low speeds. The cells and compounds were then pre-incubated for 30 minutes at 37° C. with 5% CO2.
The 10× stimulation mix was made by preparing a 100 ng/mL solution of human IFNγ in 10% RPMI. […] The cells were kept under conditions for stimulation for 18-24 hours at 37° C. with 5% CO2.
The cells were transferred to a 96 well round bottom plate for staining and then kept on ice for the duration of the staining procedure. Cells were spun down at 1000 rpm for 5 minutes at 4° C., following which the supernatant was removed. Following removal of the supernatant, 1 μL APC conjugated mouse anti-human ICAM-1 antibody was added per 100 μL FACS buffer. The cells were then incubated on ice in the dark for 30 minutes. Following incubation, 150 μL of FACS buffer was added and the cells were centrifuged at 1000 rpm for 5 minutes at 4° C., following which the supernatant was removed. […]
Both % live cells and ICAM-1 expression was analyzed. […]
(In general: In flow cytometry, cells or beads pass a laser one at a time.)

Regarding `C#CCOc1ccc(Nc2nc(Nc3ccc(C)c(S(=O)(=O)NC(=O)CC)c3)ncc2F)cc1` [II, 5-fluoro-N2-(4-methyl-3-propionylaminosulfonylphenyl)-N-4-[4-(prop-2-ynyloxy)phenyl]-2,4-pyrimidinediamine], in the assay with JAK1 and JAK3 kinases (Homo sapiens, Ramos B cells, IL-4 50 units/mL, 20-24 hours, CD23 staining, read-out: Example 3 IC50), the IC50 was determined as 9660 nM.

On to `C#CCOc1ccc(Nc2nc(Nc3ccc(C)c(S(=O)(=O)NC(=O)CC)c3)ncc2F)cc1` [IV, 5-Fluoro-N2-[4-methyl-3-(N-propionylaminosulfonyl)phenyl]-N4-[4-(2-propynyloxy)phenyl]-2,4-pyrimidinediamine Potassium Salt], for which the IC50 in the assay with JAK1 and JAK3 kinases (Homo sapiens, Ramos, read-out: Example 3 IC50, Ramos B cells, IL-4 50 units/mL, 20-24 hours, CD23 staining) is 2320 nM; in the assay on primary human T-cells (Homo sapiens, T-cell, 72 h), 5560 nM.

`C#CCOc1ccc(Nc2nc(Nc3ccc(C)c(S(N)(=O)=O)c3)ncc2F)cc1` [Compound I, N2-(3-Aminosulfonyl-4-methylphenyl)-5-fluoro-N-4-[4-(prop-2-ynyloxy)phenyl]-2,4-pyrimidinediamine]: the EC50 was around 180 nM on JAK3 and around 140 nM at Syk. Besides, the “activity on other cytokine signaling (IL-1β)” value in the assay on IL-1β is recorded as “little or no activity”. The “activity on other cytokine signaling (TNFα)” value with TNFα is “little or no activity”. The “activity on receptor tyrosine kinase (RTK) signaling” value in assay [1] is “little or no activity”. The “inhibition of cell proliferation” value in the assay on cell proliferation was “not a broad inhibitor of cell proliferation”.

For the compound `C#CCOc1ccc(Nc2nc(Nc3ccc(C)c(S(=O)(=O)NC(=O)CC)c3)ncc2F)cc1` [VII, 5-Fluoro-N2-[4-methyl-3-(N-propionylaminosulfonyl)phenyl]-N4-[4-(2-propynyloxy)phenyl]-2,4-pyrimidinediamine Choline Salt], the IC50 is 22 nM in the assay with JAK1 and JAK3 kinases (Ramos B cells, IL-4 50 units/mL, 20-24 hours, CD23 staining, read-out: Example 3 IC50); 53 nM in the assay with primary human T-cells (primary human T-cells, IL-2, 72 hours, ATP readout); 140 nM in the assay on JAK/Stat pathway.

On to `C#CCOc1ccc(Nc2nc(Nc3ccc(C)c(S(=O)(=O)NC(=O)CC)c3)ncc2F)cc1` [III, 5-fluoro-N2-(4-methyl-3-propionylaminosulfonylphenyl)-N-4-[4-(prop-2-ynyloxy)phenyl]-2,4-pyrimidinediamine mono-sodium salt], for which the IC50 with JAK1 and JAK3 kinases (Ramos B cells, IL-4 50 units/mL, 20-24 hours, CD23 staining, mono-sodium salt, read-out: Example 3 IC50) was 3970 nM.

On to `C#CCOc1ccc(Nc2nc(Nc3ccc(C)c(S(=O)(=O)NC(=O)CC)c3)ncc2F)cc1` [V, 5-Fluoro-N2-[4-methyl-3-(N-propionylaminosulfonyl)phenyl]-N-4-[4-(2-propynyloxy)phenyl]-2,4-pyrimidinediamine Calcium Salt], for which the IC50 was 373 nM with JAK1 and JAK3 kinases (Ramos B cells, IL-4 50 units/mL, 20-24 hours, CD23 staining, Calcium Salt, read-out: Example 3 IC50); 25100 nM with JAK/Stat pathway.
